Numbered stars: 1 amine (or outer) side, 2 acyl side, 3 side chain; on linkers, the order of the positions; unused ones are H or OH. Bridge positions count the residues as written; N and C are the ends. Square brackets hold non-standard residues; d marks the D form. Peptide text beside a SMILES is read from it. I, II: the chains in the order shown. BMH = O=C1CC([*:1])C(=O)N1CCCCCCN1C(=O)CC([*:2])C1=O; Oic = O=C(O)[C@@H]1C[C@@H]2CCCC[C@@H]2N1; Hyp = O=C(O)[C@@H]1C[C@@H](O)CN1; dTic = O=C(O)[C@H]1Cc2ccccc2CN1
Assays:
[1] = biological target: T1, BK2 -receptor (Rattus norvegicus, UniProt P25023); assay: rat uterus (RU) in vitro, antagonism of BK
T1 construct: guinea-pig ileum (GPI), rat uterus (RU) and rabbit jugular vein (RJV); from tissue; host or cells: rat uterus
T1 sequence (P25023 1-396): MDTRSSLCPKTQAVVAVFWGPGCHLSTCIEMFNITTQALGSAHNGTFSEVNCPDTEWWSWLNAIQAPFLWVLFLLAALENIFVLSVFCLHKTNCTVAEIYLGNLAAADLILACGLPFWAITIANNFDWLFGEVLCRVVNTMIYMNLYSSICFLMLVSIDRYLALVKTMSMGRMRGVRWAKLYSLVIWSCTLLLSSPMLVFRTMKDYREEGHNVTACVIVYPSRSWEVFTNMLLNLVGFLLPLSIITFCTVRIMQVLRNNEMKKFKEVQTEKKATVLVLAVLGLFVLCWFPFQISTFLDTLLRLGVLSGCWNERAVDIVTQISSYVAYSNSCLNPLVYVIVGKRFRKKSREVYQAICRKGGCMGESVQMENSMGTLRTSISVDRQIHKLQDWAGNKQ
Experimental: Thus, in vitro studies were performed on standard assay systems, namely, guinea-pig ileum (GPI), rat uterus (RU) and rabbit jugular vein (RJV). […] The potency of each compound was assessed as a pA2 value according to the method of Arunlakshana & Schild, Br. J. Pharmacol. Chemother., 14:48-58 (1959). The pA2 can be defined as the negative logarithm of the molar concentration of the antagonist in the presence of which the potency of the agonist is reduced two-fold, i.e., twice the amount of agonist is required to produce a given response in the presence of, than in the absence of, the antagonist. A high potency of antagonism is indicated by a high pA2 value. i.e., a low concentration of antagonist is effective.
The percentage recovery (% Rec) was also determined for compounds with respect to each assay.
With respect to duration of activity, it is noted that after exposure to the highest concentration of antagonist, each tissue was washed extensively and then assessed for recovery from the antagonist effect.
Potency in the rat uterus assay was assessed as described above and pA2 values determined.

[2] = biological target: T2, BK1 receptor (Oryctolagus cuniculus, UniProt P48748); assay: blood pressure response to BK1 agonist in LPS-pretreated rabbits; format: in vivo, rabbit; set-up: from tissue; host or cells: whole animal (rabbit, LPS-pretreated), blood pressure response; key to observed antagonist activity BK1, 1 / observed antagonist activity BK1, 3 / observed antagonist activity BK1, 10: +: complete blockade of the blood pressure response to the appropriate agonist; ±: partial blockade; -: no observable effect at the dose indicated; details: for observed antagonist activity BK1, 1: 1 μg kg^-1 min^-1; for observed antagonist activity BK1, 1 / observed antagonist activity BK1, 3 / observed antagonist activity BK1, 10: rabbits given LPS (10 μg) 20 hours before; for observed antagonist activity BK1, 3: 3 μg kg^-1 min^-1; for observed antagonist activity BK1, 10: 10 μg kg^-1 min^-1
T2 sequence (P48748 1-352): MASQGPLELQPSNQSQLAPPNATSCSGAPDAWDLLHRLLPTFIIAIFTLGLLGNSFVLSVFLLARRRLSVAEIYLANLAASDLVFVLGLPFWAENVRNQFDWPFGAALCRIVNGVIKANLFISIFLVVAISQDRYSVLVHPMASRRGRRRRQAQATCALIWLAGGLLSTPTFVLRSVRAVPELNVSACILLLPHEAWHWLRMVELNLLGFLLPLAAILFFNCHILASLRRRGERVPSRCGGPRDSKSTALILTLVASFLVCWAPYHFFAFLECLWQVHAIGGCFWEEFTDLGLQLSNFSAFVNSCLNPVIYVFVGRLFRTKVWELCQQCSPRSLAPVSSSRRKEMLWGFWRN
Description: (§1) That heterodimeric constructs block the activities attributable to two different receptor populations simultaneously when administered to an intact animal has been known using a standard assay of BK2 and BK1 receptor activity (see, deBlois, Bouthillier, and Marceau, Brit. J. Pharm., 103, 1057-1066, 1991). In normal rabbits, no changes in systemic arterial blood pressure can be detected in response to challenges with BK1 receptor agonists. There is, however, a predictable and reproducible response to BK2 agonists constituatively present. After stimulation with LPS BK1 receptor activity will develop over time such that profound responses to doses of BK1 agonists that were previously inconsequential in nature are observed after a 3-4 hour period. Responses to BK2 agonists are unchanged in these animals. At this point, one can test directly the ability to block both BK1 and BK2 mediated reductions in systemic blood pressure simultaneously with a heterodimeric antagonist.
(§2) FIGS. 8a, b and c comprise actual blood pressure traces from a series of experiments designed to illustrate the ability of a representative heterodimer (CP-0364) to block both BK1 - and BK2 - mediated hypotensive responses simultaneously.
(§3) The expected antagonist activity is based on the data summarized in Tables K and L. The in vivo experimental data reported are qualitative measurements of antagonist activity at three different doses (1, 3 and 10 μg kg^-1 min^-1) in rabbits given a sub-lethal dose of LPS (10 μg), 20 hours before initiation of the experiment.

[3] = biological target: T3, BK2 receptor (Oryctolagus cuniculus, UniProt Q28642); assay: blood pressure response to BK2 agonist in LPS-pretreated rabbits; format: in vivo, rabbit; set-up: key to observed antagonist activity BK2, 1 / observed antagonist activity BK2, 3 / observed antagonist activity BK2, 10: +: complete blockade of the blood pressure response to the appropriate agonist; ±: partial blockade; -: no observable effect at the dose indicated; details: for observed antagonist activity BK2, 1: 1 μg kg^-1 min^-1; for observed antagonist activity BK2, 1 / observed antagonist activity BK2, 3 / observed antagonist activity BK2, 10: rabbits given LPS (10 μg) 20 hours before; for observed antagonist activity BK2, 3: 3 μg kg^-1 min^-1; for observed antagonist activity BK2, 10: 10 μg kg^-1 min^-1
T3 construct: from tissue; host or cells: whole animal (rabbit, LPS-pretreated), blood pressure response
T3 sequence (Q28642 1-367): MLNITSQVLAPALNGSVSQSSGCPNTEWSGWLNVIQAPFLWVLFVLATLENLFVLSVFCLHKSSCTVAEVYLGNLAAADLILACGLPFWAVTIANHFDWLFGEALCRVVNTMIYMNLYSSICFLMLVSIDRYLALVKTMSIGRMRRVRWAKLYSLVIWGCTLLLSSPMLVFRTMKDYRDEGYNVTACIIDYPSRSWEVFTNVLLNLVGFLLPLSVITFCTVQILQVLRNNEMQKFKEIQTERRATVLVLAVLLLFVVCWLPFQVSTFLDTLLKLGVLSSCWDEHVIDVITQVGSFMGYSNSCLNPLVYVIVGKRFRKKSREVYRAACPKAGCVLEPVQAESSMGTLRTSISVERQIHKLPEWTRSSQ
Description: as §1, §2, §3

[4] = rabbits after endotoxin pre-treatment, agonist i.v. bolus

SMILES: CC(C)C[C@H](NC(=O)[C@@H](Cc1ccccc1)NC(=O)[C@H](CO)NC(=O)[C@H](CSC1CC(=O)N(CCCCCCN2C(=O)CC(SC[C@H](NC(=O)CNC(=O)[C@@H]3C[C@@H](O)CN3C(=O)[C@@H]3CCCN3C(=O)[C@H](CCCNC(=N)N)NC(=O)[C@H](N)CCCNC(=N)N)C(=O)N[C@@H](CO)C(=O)N[C@H](Cc3ccccc3)C(=O)N[C@@H](CC(C)C)C(=O)N[C@@H](CCCNC(=N)N)C(=O)O)C2=O)C1=O)NC(=O)CNC(=O)[C@@H]1C[C@@H](O)CN1C(=O)[C@@H]1CCCN1C(=O)[C@H](CCCNC(=N)N)NC(=O)[C@H](N)CCCNC(=N)N)C(=O)N[C@@H](CCCNC(=N)N)C(=O)O (some centres unmarked) [CP-0156] (HELM PEPTIDE1{[dR].R.P.[Hyp].G.C.S.[dF].L.R}|PEPTIDE2{[dR].R.P.[Hyp].G.C.S.[dF].L.R}|CHEM1{[O=C1CC([*:1])C(=O)N1CCCCCCN1C(=O)CC([*:2])C1=O]}$PEPTIDE1,CHEM1,6:R3-1:R1|PEPTIDE2,CHEM1,6:R3-1:R2$$$V2.0)
- % REC rat uterus ([1]; percentage recovery after washing): 75%

SMILES: CC(C)C[C@H](NC(=O)[C@@H](Cc1ccccc1)NC(=O)[C@H](CSC1CC(=O)N(CCN2C(=O)CC(SC[C@H](NC(=O)[C@H](Cc3ccccc3)NC(=O)CNC(=O)[C@@H]3C[C@@H](O)CN3C(=O)[C@@H]3CCCN3C(=O)[C@H](CCCNC(=N)N)NC(=O)[C@H](N)CCCNC(=N)N)C(=O)N[C@H](Cc3ccccc3)C(=O)N[C@@H](CC(C)C)C(=O)N[C@@H](CCCNC(=N)N)C(=O)O)C2=O)C1=O)NC(=O)[C@H](Cc1ccccc1)NC(=O)CNC(=O)[C@@H]1C[C@@H](O)CN1C(=O)[C@@H]1CCCN1C(=O)[C@H](CCCNC(=N)N)NC(=O)[C@H](N)CCCNC(=N)N)C(=O)N[C@@H](CCCNC(=N)N)C(=O)O (some centres unmarked) [CP-0162] (HELM PEPTIDE1{[dR].R.P.[Hyp].G.F.C.[dF].L.R}|PEPTIDE2{[dR].R.P.[Hyp].G.F.C.[dF].L.R}|CHEM1{[O=C1CC([*:1])C(=O)N1CCN1C(=O)CC([*:2])C1=O]}$PEPTIDE1,CHEM1,7:R3-1:R1|PEPTIDE2,CHEM1,7:R3-1:R2$$$V2.0)
- Kb ([1]; against BK, read-out: pA2 rat uterus (BK2) (converted)): 3.98 nM

SMILES: CC(C)C[C@H](NC(=O)[C@@H](Cc1ccccc1)NC(=O)[C@H](CSC1CC(=O)N(CCCCN2C(=O)CC(SC[C@H](NC(=O)[C@H](Cc3ccccc3)NC(=O)CNC(=O)[C@@H]3C[C@@H](O)CN3C(=O)[C@@H]3CCCN3C(=O)[C@H](CCCNC(=N)N)NC(=O)[C@H](N)CCCNC(=N)N)C(=O)N[C@H](Cc3ccccc3)C(=O)N[C@@H](CC(C)C)C(=O)N[C@@H](CCCNC(=N)N)C(=O)O)C2=O)C1=O)NC(=O)[C@H](Cc1ccccc1)NC(=O)CNC(=O)[C@@H]1C[C@@H](O)CN1C(=O)[C@@H]1CCCN1C(=O)[C@H](CCCNC(=N)N)NC(=O)[C@H](N)CCCNC(=N)N)C(=O)N[C@@H](CCCNC(=N)N)C(=O)O (some centres unmarked) [CP-0209] (HELM PEPTIDE1{[dR].R.P.[Hyp].G.F.C.[dF].L.R}|PEPTIDE2{[dR].R.P.[Hyp].G.F.C.[dF].L.R}|CHEM1{[O=C1CC([*:1])C(=O)N1CCCCN1C(=O)CC([*:2])C1=O]}$PEPTIDE1,CHEM1,7:R3-1:R1|PEPTIDE2,CHEM1,7:R3-1:R2$$$V2.0)
- pA2 rat uterus (BK2) ([1]; against BK): 8.2 ± 0.2

SMILES: CC(C)C[C@H](NC(=O)[C@@H]1CCCN1C(=O)[C@H](CO)NC(=O)[C@H](Cc1ccccc1)NC(=O)CNC(=O)[C@@H]1CCCN1C(=O)[C@@H]1CCCN1C(=O)[C@H](CCCNC(=N)N)NC(=O)[C@@H](N)CCCCN)C(=O)O [CP-0298, des ARG^9-[LYS^0, LEU^8]-BK, reference compound]
- observed antagonist activity BK1, 1 [2]: +
- observed antagonist activity BK1, 3 [2]: +
- observed antagonist activity BK1, 10 [2]: +
- observed antagonist activity BK2, 1 [3]: -
- observed antagonist activity BK2, 3 [3]: -
- observed antagonist activity BK2, 10 [3]: -

SMILES: CC(C)C[C@H](NC(=O)[C@@H]1CCCN1C(=O)[C@H](CO)NC(=O)[C@H](Cc1ccccc1)NC(=O)CNC(=O)[C@@H]1C[C@@H](O)CN1C(=O)[C@@H]1CCCN1C(=O)[C@H](CSC1CC(=O)N(CCCCCCN2C(=O)CC(SC[C@H](NC(=O)[C@H](Cc3ccccc3)NC(=O)CNC(=O)[C@@H]3C[C@@H](O)CN3C(=O)[C@@H]3CCCN3C(=O)[C@H](CCCNC(=N)N)NC(=O)[C@H](N)CCCNC(=N)N)C(=O)N[C@H](Cc3ccccc3)C(=O)N[C@@H](CC(C)C)C(=O)N[C@@H](CCCNC(=N)N)C(=O)O)C2=O)C1=O)NC(=O)[C@H](N)CCCNC(=N)N)C(=O)O (some centres unmarked) [CP-0364] (HELM PEPTIDE1{[dR].R.P.[Hyp].G.F.C.[dF].L.R}|PEPTIDE2{[dR].C.P.[Hyp].G.F.S.P.L}|CHEM1{[O=C1CC([*:1])C(=O)N1CCCCCCN1C(=O)CC([*:2])C1=O]}$PEPTIDE1,CHEM1,7:R3-1:R1|PEPTIDE2,CHEM1,2:R3-1:R2$$$V2.0; N-terminus and C-terminus assumed)
- observed antagonist activity BK1, 1 [2]: +
- observed antagonist activity BK1, 3 [2]: +
- observed antagonist activity BK1, 10 [2]: +
- block of BK1-mediated hypotensive response (FIG. 8) [2, 4]: capable of blocking the response profile to both agonists simultaneously
- observed antagonist activity BK2, 1 [3]: +
- observed antagonist activity BK2, 3 [3]: +
- observed antagonist activity BK2, 10 [3]: +
- block of BK2-mediated hypotensive response (FIG. 8) [3, 4]: capable of blocking the response profile to both agonists simultaneously

SMILES: N=C(N)NCCC[C@@H](N)C(=O)N[C@@H](CCCNC(=N)N)C(=O)N1CCC[C@H]1C(=O)N1C[C@H](O)C[C@H]1C(=O)NCC(=O)N[C@@H](Cc1ccccc1)C(=O)N[C@@H](CSC1CC(=O)N(CCCCCCN2C(=O)CC(SC[C@H](NC(=O)[C@H](N)CCCNC(=N)N)C(=O)N3CCC[C@H]3C(=O)N3C[C@H](O)C[C@H]3C(=O)NCC(=O)N[C@@H](Cc3ccccc3)C(=O)N[C@@H](CO)C(=O)N3Cc4ccccc4C[C@@H]3C(=O)N3[C@H](C(=O)O)C[C@@H]4CCCC[C@@H]43)C2=O)C1=O)C(=O)N1Cc2ccccc2C[C@@H]1C(=O)N1[C@H](C(=O)N[C@@H](CCCNC(=N)N)C(=O)O)C[C@@H]2CCCC[C@@H]21 (some centres unmarked) [CP-0365] (I: H-[dR]RP[Hyp]GFC[dTic][Oic]R-OH / II: H-[dR]CP[Hyp]GFS[dTic][Oic]-OH; linker I:7-II:2 via BMH; N-terminus and C-terminus assumed)
- observed antagonist activity BK1, 1 [2]: -
- observed antagonist activity BK1, 3 [2]: +
- observed antagonist activity BK1, 10 [2]: +
- observed antagonist activity BK2, 1 [3]: -
- observed antagonist activity BK2, 3 [3]: +
- observed antagonist activity BK2, 10 [3]: +

From patent US5635593A (priority 1995, dated 1997)
